Source: PubChem BioAssay (NCI)
Several values for one entry are separate records, joined by “and”; a condition that tells them apart may be missing. Identical values can stand only once.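 Five concentrations, 48 hours, 96-well plates. Here, GI50 denotes the concentration required for 50% inhibition of growth. TGI marks complete inhibition of growth.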

Experiments:
Assay in all cases: NCI anticancer screen, dose series, 48 h
[1] = tested on: A498 renal
[2] = tested on: CAKI-1 renal
[3] = tested on: CCRF-CEM leukemia
[4] = tested on: EKVX NSCLC
[5] = tested on: HL-60(TB) leukemia
[6] = tested on: SF-539 CNS
[7] = tested on: SW-620 colon
[8] = tested on: DU-145 prostate
[9] = tested on: HOP-62 NSCLC
[10] = tested on: T-47D breast

SMILES	TGI [1] [nM]	TGI [2] [nM]	TGI [3] [nM]	TGI [4]	TGI [5] [nM]	TGI [6]	TGI [7] [nM]	GI50 [1] [nM]	GI50 [2] [nM]	GI50 [3] [nM]	GI50 [8] [nM]	TGI [8] [nM]	GI50 [4] [nM]	GI50 [9] [nM]	TGI [9]	GI50 [6] [nM]	GI50 [7] [nM]	GI50 [10] [nM]	TGI [10] [nM]	GI50 [5]
O=c1c2ccccc2c(=O)n2n1CC=CC2	> 100000	> 100000	> 100000	> 100000 nM	> 100000	> 100000 nM	> 100000	–	–	–	–	–	–	–	–	–	–	–	–	–
COc1ccc(/C=C/C(=O)c2ccc(O)c(CN3CCN(c4cc5c(cc4F)c(=O)c(C(=O)O)cn5C4CC4)CC3)c2)cc1	5540	> 100000	> 100000	> 100000 nM	–	> 100000 nM	> 100000	1340	2350	805	1470	> 100000	8350	1970	> 100000 nM	407	1380	1830	> 100000	–
COc1ccc2c(c1)[n+]([O-])c(-c1ccc(OC)c(OC)c1)c(N)[n+]2[O-]	> 100000	72200	> 100000	> 100000 nM	> 100000	> 100000 nM	> 100000	–	–	–	–	–	–	–	> 100000 nM	–	–	–	–	–
O=C1NC2(CCCCCC2)C2CCCCCCC12O (stereo not given)	> 100000	> 100000	> 100000	> 100000 nM	> 100000	> 100000 nM	> 100000	–	–	–	–	–	–	–	> 100000 nM	–	–	–	–	–
N.N.N.N.N.[Cl-].[Co+3].c1ccc(-c2nn[n-]n2)cc1	–	> 100000	> 100000	> 100000 nM	> 100000	> 100000 nM	> 100000	–	> 100000	> 100000	–	–	> 100000	> 100000	> 100000 nM	> 100000	> 100000	–	–	> 100000 nM
COCC(O)Cn1ccnc1[N+](=O)[O-] (stereo not given)	–	> 100000	> 100000	> 100000 nM	> 100000	> 100000 nM	> 100000	–	–	–	–	–	–	–	> 100000 nM	–	–	–	–	–
Cc1oc2c(C)c3oc(=O)cc(C)c3cc2c1CN1C(=O)C2OCCOCCOCCOCCOCCO[C@H]2C1=O (stereo not given in full)	> 100000	> 100000	> 100000	> 100000 nM	> 100000	> 100000 nM	> 100000	–	–	–	–	–	–	–	> 100000 nM	–	–	–	–	–
CCC(C)[C@H]1O[C@]2(C=C[C@@H]1C)C[C@@H]1C[C@@H](C/C=C(\C)[C@@H](OC3C[C@H](OC)C(O[C@H]4C[C@H](OC)[C@@H](O)[C@H](C)O4)[C@H](C)O3)[C@@H](C)/C=C/C=C3\CO[C@@H]4[C@H](O)C(C)=C[C@@H](C(=O)O1)[C@]34O)O2 (stereo not given in full)	1140	–	–	–	2590	4490 nM	–	500	–	–	907	1620	–	1370	6530 nM	1500	–	1090	3580	1160 nM
C1=CC=C2NCCCCCCCNC3=CC=CC=CC3=NCCCCCCCN=C2C=C1	–	> 100000	> 100000	> 100000 nM	> 100000	> 100000 nM	> 100000	–	–	–	–	–	–	–	–	–	–	–	–	–
COc1cccc2c1C(=O)c1c(O)c3c(c(O)c1C2=O)CC(O)(C(O)CO)CC3OC1CC(N2CCOCC2)C(O)C(C)O1 (stereo not given)	–	33.5	221	33.4 nM and 146 nM	195	14 nM and 74.4 nM	–	13.9	–	–	–	3310	30.4	26.2	56.6 nM and 81 nM	18.7	13.8	–	–	35.2 nM and 25.1 nM
CN1CCN(CCOc2ccc(-c3cnc4c(-c5ccc(C(F)(F)F)cc5)cnn4c3)cc2)CC1	2760	2720	–	2970 nM	–	3040 nM	3270	1370	1420	–	1590	2930	1510	1630	3550 nM	1640	1760	–	–	–
OCC(O)C(Cl)CCl (stereo not given)	–	> 100000	> 100000	> 100000 nM	> 100000	> 100000 nM	> 100000	–	–	–	–	> 100000	–	–	> 100000 nM	–	–	–	> 100000	–
OCC1C(/C=C/c2ccoc2)ON2CCCC12 (stereo not given)	–	> 100000	–	> 100000 nM	> 100000	> 100000 nM	> 100000	–	–	–	–	–	–	–	> 100000 nM	–	–	–	–	–
Cc1cc(C(=C2C=CC(=Nc3ccccc3)C=C2)c2ccc(Nc3ccccc3)cc2)ccc1N	1860	–	> 100000	1260 nM	–	1160 nM	1050	543	–	352	507	1580	334	–	–	328	290	527	1930	–
O=C(CC(=O)C1=CNc2ccccc2S1)C(=O)Nc1ccc(Cl)cc1	> 50000	> 50000	> 50000	> 50000 nM	49600	> 50000 nM	> 50000	–	–	–	–	–	–	–	> 50000 nM	–	–	–	–	–
CC(C)CCCC(C)[C@H]1CCC2[C@@H]3CCC4Nc5nocc5C[C@]4(C)C3CC[C@@]21C (stereo not given in full)	36100	29000	36900	31300 nM	27600	33500 nM	31400	–	–	–	–	–	–	–	> 100000 nM	–	–	–	–	–
COC(=O)[C@@]12OC[C@]34[C@H]([C@@H](O)[C@@H]1O)[C@@]1(C)[C@H](O)C(=O)C=C(C)[C@@H]1C[C@H]3OC(=O)C(OC(C)=O)[C@@H]24 (stereo not given in full)	41.3	394	–	372 nM	31.5	61.2 nM	128	14.6	107	–	44.5	206	52.9	29.4	156 nM	21.8	24.2	36.2	300	11.9 nM
O=C(O/C(=C(/N=Nc1ccccc1)c1ccccc1)c1ccccc1)c1ccccc1	–	> 100000	–	> 100000 nM	–	> 100000 nM	> 100000	–	–	–	–	–	–	–	–	–	–	–	–	–
CCOC1=C2C(=O)OC(=O)C2C2CCCCC2=C1 (stereo not given)	–	> 100000	> 100000	> 100000 nM	> 100000	> 100000 nM	> 100000	–	–	–	–	–	–	–	> 100000 nM	–	–	–	–	–
Cc1cc2c(C)nn(Cc3ccccc3)c2c(C(N)=O)c1C	> 100000	–	> 100000	> 100000 nM	–	> 100000 nM	> 100000	–	–	–	–	–	–	–	> 100000 nM	–	–	–	–	–
